Measured values reported in ChEMBL document CHEMBL1201862, “PubChem BioAssay data set” (2004).
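All cell lines were grown in 96-well plates and treated with compound for 48 hours. Here, GI50 denotes the concentration required for 50% inhibition of growth.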 The source made the active and inactive calls. No stated cut-off is given here; in the data, active = GI50 up to about 1.1 µM and inactive = higher.

Columns and labels:
Test in all cases: NCI anticancer screen, dose series, 48 h
[1] = system: MOLT-4
[2] = system: KM12
[3] = system: NCI-H23
[4] = system: RPMI-8226
[5] = system: IGROV-1
[6] = system: MDA-MB-231
[7] = system: SF-295
[8] = system: SNB-75
[9] = system: A549
[10] = system: OVCAR-3
[11] = system: MDA-MB-435
[12] = system: PC-3
[13] = system: ACHN
[14] = system: HCT-15
[15] = system: HT-29
[16] = system: SF-539
[17] = system: OVCAR-5
[18] = system: NCI-H460
[19] = system: OVCAR-4
[20] = system: HL-60

SMILES	GI50 [1]	GI50 [2]	GI50 [3]	GI50 [4]	GI50 [5]	GI50 [6]	GI50 [7]	GI50 [8]	GI50 [9]	GI50 [10]	GI50 [11]	GI50 [12]	GI50 [13]	GI50 [14] [µM]	GI50 [15]	GI50 [16]	GI50 [17]	GI50 [18]	GI50 [19]	GI50 [20]
Cc1ccc(Nc2nnc(-c3ccc4c(c3)OCO4)o2)c(C)c1	1.71 µM (inactive)	> 100 µM (inactive)	> 100 µM (inactive)	54 µM (inactive)	> 100 µM (inactive)	62.2 µM (inactive)	> 100 µM (inactive)	> 100 µM (inactive)	> 100 µM (inactive)	> 100 µM (inactive)	> 100 µM (inactive)	50.1 µM (inactive)	> 100 µM (inactive)	> 100	> 100 µM (inactive)	64.6 µM (inactive)	> 100 µM (inactive)	> 100 µM (inactive)	> 100 µM (inactive)	–
CC1(C)OC[C@@H](O)[C@H](Br)CO1	65.8 µM (inactive)	> 100 µM (inactive)	> 100 µM (inactive)	67.3 µM (inactive)	–	> 100 µM (inactive)	> 100 µM (inactive)	> 100 µM (inactive)	–	> 100 µM (inactive)	> 100 µM (inactive)	> 100 µM (inactive)	> 100 µM (inactive)	> 100	> 100 µM (inactive)	> 100 µM (inactive)	> 100 µM (inactive)	> 100 µM (inactive)	> 100 µM (inactive)	> 100 µM (inactive)
Cc1cc(NS(=O)(=O)c2ccc(Nc3c4ccccc4nc4c(C(=O)NCCO)cccc34)cc2)no1	7.41 µM (inactive)	23.9 µM (inactive)	39.2 µM (inactive)	19.4 µM (inactive)	25.1 µM (inactive)	17.9 µM (inactive)	38.7 µM (inactive)	7.19 µM (inactive)	37.3 µM (inactive)	21.9 µM (inactive)	24.7 µM (inactive)	39.2 µM (inactive)	30.2 µM (inactive)	24.9	29 µM (inactive)	–	13.3 µM (inactive)	28.6 µM (inactive)	29 µM (inactive)	37.9 µM (inactive)
O=C(CSCC(=O)N/N=C/c1ccccc1)N/N=C\c1ccccc1	68.2 µM (inactive)	16.7 µM (inactive)	> 100 µM (inactive)	38.1 µM (inactive)	> 100 µM (inactive)	> 100 µM (inactive)	> 100 µM (inactive)	> 100 µM (inactive)	> 100 µM (inactive)	> 100 µM (inactive)	> 100 µM (inactive)	> 100 µM (inactive)	> 100 µM (inactive)	> 100	> 100 µM (inactive)	81.3 µM (inactive)	> 100 µM (inactive)	> 100 µM (inactive)	> 100 µM (inactive)	–
CC(C)CC(NC(=O)C(CCI)Cc1ccccc1)C(=O)Nc1ccccc1 (configuration not stated)	26.7 µM (inactive)	37.5 µM (inactive)	49 µM (inactive)	36.9 µM (inactive)	51.1 µM (inactive)	> 100 µM (inactive)	> 100 µM (inactive)	93.8 µM (inactive)	80.9 µM (inactive)	> 100 µM (inactive)	58.5 µM (inactive)	51.1 µM (inactive)	53.5 µM (inactive)	49.9	–	> 100 µM (inactive)	> 100 µM (inactive)	80.2 µM (inactive)	> 100 µM (inactive)	18 µM (inactive)
O=C1/C(=N/N=C(c2ccccc2)c2ccccc2)c2ccccc2-c2ccccc21	22.5 µM (inactive)	> 100 µM (inactive)	74 µM (inactive)	–	73.1 µM (inactive)	31.6 µM (inactive)	64 µM (inactive)	> 100 µM (inactive)	> 100 µM (inactive)	40.8 µM (inactive)	> 100 µM (inactive)	64 µM (inactive)	65.9 µM (inactive)	37.8	> 100 µM (inactive)	> 100 µM (inactive)	> 100 µM (inactive)	> 100 µM (inactive)	77.3 µM (inactive)	> 100 µM (inactive)
CCCCCCCCCCCCCCCCCc1nc(C#N)c(N)o1	5.06 µM (inactive)	23.5 µM (inactive)	–	5.27 µM (inactive)	12.1 µM (inactive)	21 µM (inactive)	–	21.4 µM (inactive)	> 100 µM (inactive)	–	> 100 µM (inactive)	24.4 µM (inactive)	96.6 µM (inactive)	86.9	> 100 µM (inactive)	–	73.1 µM (inactive)	–	–	3.53 µM (inactive)
CN(C(=O)C1=CCCCCC1)c1ccccc1I	49.3 µM (inactive)	19.1 µM (inactive)	38.2 µM (inactive)	35.5 µM (inactive)	32.8 µM (inactive)	67.8 µM (inactive)	44.9 µM (inactive)	13.5 µM (inactive)	62.1 µM (inactive)	49.7 µM (inactive)	40.2 µM (inactive)	35 µM (inactive)	59.6 µM (inactive)	39.6	–	–	> 100 µM (inactive)	32 µM (inactive)	18.2 µM (inactive)	13.7 µM (inactive)
C[C@@H](CO)C1=C(O)C(=O)c2c(ccc3c2CCCC3(C)C)C1=O	42.1 µM (inactive)	37.2 µM (inactive)	22.1 µM (inactive)	23 µM (inactive)	37.2 µM (inactive)	61.4 µM (inactive)	30.4 µM (inactive)	40 µM (inactive)	32.1 µM (inactive)	28.2 µM (inactive)	26.8 µM (inactive)	31.8 µM (inactive)	18.5 µM (inactive)	29	35.5 µM (inactive)	–	36.6 µM (inactive)	–	46.7 µM (inactive)	< 0.01 µM (active)
O=C(O)C(Br)C(Br)C(=O)O (configuration not stated)	–	> 100 µM (inactive)	> 100 µM (inactive)	> 100 µM (inactive)	> 100 µM (inactive)	> 100 µM (inactive)	> 100 µM (inactive)	> 100 µM (inactive)	> 100 µM (inactive)	> 100 µM (inactive)	> 100 µM (inactive)	> 100 µM (inactive)	> 100 µM (inactive)	> 100	> 100 µM (inactive)	> 100 µM (inactive)	> 100 µM (inactive)	> 100 µM (inactive)	> 100 µM (inactive)	> 100 µM (inactive)
O=C1NC(=O)/C(=C/c2ccc(S(=O)(=O)N/N=C\C(O)C(O)C(O)C(O)CO)cc2)N1 (configuration not stated)	> 100 µM (inactive)	> 100 µM (inactive)	> 100 µM (inactive)	> 100 µM (inactive)	> 100 µM (inactive)	> 100 µM (inactive)	> 100 µM (inactive)	> 100 µM (inactive)	> 100 µM (inactive)	> 100 µM (inactive)	> 100 µM (inactive)	> 100 µM (inactive)	> 100 µM (inactive)	> 100	> 100 µM (inactive)	–	> 100 µM (inactive)	> 100 µM (inactive)	> 100 µM (inactive)	> 100 µM (inactive)
CONC(C)=O	> 100 µM (inactive)	> 100 µM (inactive)	> 100 µM (inactive)	> 100 µM (inactive)	> 100 µM (inactive)	> 100 µM (inactive)	> 100 µM (inactive)	> 100 µM (inactive)	> 100 µM (inactive)	> 100 µM (inactive)	> 100 µM (inactive)	> 100 µM (inactive)	> 100 µM (inactive)	> 100	> 100 µM (inactive)	> 100 µM (inactive)	> 100 µM (inactive)	> 100 µM (inactive)	–	> 100 µM (inactive)
CN(CCCNC(=O)c1n[nH]c2c1ccc1ccccc12)CCCNC(=O)c1n[nH]c2c1ccc1ccccc12	10.4 µM (inactive)	16.9 µM (inactive)	17.9 µM (inactive)	–	16.5 µM (inactive)	10.9 µM (inactive)	17.3 µM (inactive)	16.3 µM (inactive)	19.3 µM (inactive)	13.8 µM (inactive)	2.62 µM (inactive)	14.7 µM (inactive)	17.6 µM (inactive)	17	14.6 µM (inactive)	11 µM (inactive)	20.4 µM (inactive)	18 µM (inactive)	17.3 µM (inactive)	1.67 µM (inactive)
C/N=C(\Nc1cccc(C(F)(F)F)c1)SCc1ccc(N=C=S)cc1	11.5 µM (inactive)	15.4 µM (inactive)	16.3 µM (inactive)	5.92 µM (inactive)	16.4 µM (inactive)	11.2 µM (inactive)	16 µM (inactive)	14.2 µM (inactive)	18.1 µM (inactive)	–	13.8 µM (inactive)	15.9 µM (inactive)	15.2 µM (inactive)	7.14	15.6 µM (inactive)	17.5 µM (inactive)	16.5 µM (inactive)	12.9 µM (inactive)	13.3 µM (inactive)	40.6 µM (inactive)
CN(NC(=O)/C(=C\c1ccco1)NC(=O)c1ccccc1)c1cn[nH]c(=O)c1Cl	29.6 µM (inactive)	40.6 µM (inactive)	> 100 µM (inactive)	21.1 µM (inactive)	49.3 µM (inactive)	> 100 µM (inactive)	64.4 µM (inactive)	23.4 µM (inactive)	> 100 µM (inactive)	27.9 µM (inactive)	> 100 µM (inactive)	> 100 µM (inactive)	> 100 µM (inactive)	57.3	58.6 µM (inactive)	24.9 µM (inactive)	> 100 µM (inactive)	> 100 µM (inactive)	> 100 µM (inactive)	–
